Legend:
E. Coli = E. Coli cultures exposed 45 minutes at 37° C., plate counts; type: cell-based; conditions: peroxide 5 g/l and/or ASP 1 3 g/l; for Counts recorded: 45 minutes at 37° C., controls 40×10^8 (time zero), 37×10^8 (45 minutes), average of three; for reduction in bacteria count / kill: 45 minutes treatment at 37° C.
Experimental: Cultures of E. Coli in Ringer's saline were exposed to various conditions for 45 minutes at 37° C. These were then serially diluted (eight 10-fold dilutions) and plated onto nutrient agar (treatments were done in triplicate to ensure reproducibility), and five tests were done overall as shown below. Initial E. Coli concentration was approximately 5×10^9/ml and cultures were grown in nutrient broth overnight before being centrifuged and then re-suspended in saline. A E. Coli control-time zero. B E. Coli control-time 45 minutes C E. Coli plus peroxide at 5 g/l for 45 minutes D E. Coli plus […] at 3 g/l for 45 minutes E E. Coli plus peroxide of 5 g/l plus […] (3 g/l) for 45 minutes Plates were observed and counted after 2 days incubation at 37° C.

[1] = Bleaching of dye solutions (degree of dye removal); conditions: activator 2 g/l
Experimental: The bleaching solution was prepared as follows: […] Bleach activator 2 g/l […] Total volume 25 ml pH 3 was obtained with acetic acid; pH 7 was obtained with sodium dihydrogen phosphate (0.1M) and sodium hydroxide (0.1M); pH 10 was obtained using sodium carbonate. […] The degree of dye removal or bleaching (R %) was calculated using the following equation: % R=1-(A2/A1)×100 […]

| SMILES | Counts recorded (E. Coli) | reduction in bacteria count / kill (E. Coli) | degree of dye removal % R ([1]; pH 3, 20° C., 3 hours) | degree of dye removal % R ([1]; pH 3, 20° C., 24 hours) | degree of dye removal % R ([1]; pH 7, 20 C., 3 hours) | degree of dye removal % R ([1]; pH 7, 20 C., 24 hours) | degree of dye removal % R ([1]; pH 10, 20°C., 3 hours) | degree of dye removal % R ([1]; pH 10, 20°C., 24 hours) |
| --- | --- | --- | --- | --- | --- | --- | --- | --- |
| NC(=O)S(=O)(=O)O [ASP 1] | 7.9×10^8 colony forming units ml^−1 | about 80% |  |  |  |  |  |  |
| OO [H2O2, Hydrogen peroxide] | 12.9×10^8 colony forming units ml^−1 | ~66% | 3.3% | 85% | 2.7% | 7.1% | 11.3% | 24.8% |

Source: patent publication US20040055092A1, “Use of percarbamic acids and diacyl percarbamates and precursors therefor” (priority 2000, published 2004)
